Patent US20230271932A1, “SMALL MOLECULE COVALENT ACTIVATORS OF UCP1” (Dana-Farber Cancer Institute, Inc., priority 2020, published 2023)

Target: T1, UCP1 (Mus musculus, UniProt P12242)
T1 construct: Cellular oxygen consumption and UCP1-rependent respiration of primary brown adipocytes; endogenous in cells; host or cells: primary brown adipocytes differentiated from the interscapular brown adipose stromal vascular fraction of 2- to 6-day-old pups
T1 sequence (P12242 1-307): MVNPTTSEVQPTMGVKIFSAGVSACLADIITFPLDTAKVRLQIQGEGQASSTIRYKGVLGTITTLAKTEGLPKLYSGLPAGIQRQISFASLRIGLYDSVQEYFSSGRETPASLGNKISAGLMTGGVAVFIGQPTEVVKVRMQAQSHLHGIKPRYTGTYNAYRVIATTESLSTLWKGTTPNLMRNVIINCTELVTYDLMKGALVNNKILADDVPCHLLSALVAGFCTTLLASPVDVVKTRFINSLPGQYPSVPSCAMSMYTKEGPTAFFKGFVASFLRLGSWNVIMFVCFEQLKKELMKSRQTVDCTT
Assay: UCP1-dependent respiration in primary brown adipocytes (Seahorse XF24 oxygen consumption)
Format: cell-based
Details: wild-type primary brown adipocytes; MYF compounds at 100 uM
Procedure: Primary brown adipocyte preparation and differentiation. Interscapular brown adipose stromal vascular fraction was obtained from 2- to 6-day-old pups as described in PMID: 30022159. Interscapular brown adipose was dissected, washed in PBS, minced, and digested for 45 min at 37° C. in PBS containing 1.5 mg ml^−1 collagenase B, 123 mM NaCl, 5 mM KCl, 1.3 mM CaCl2, 5 mM glucose, 100 mM HEPES, and 4% essentially fatty-acid-free BSA. Tissue suspension was filtered through a 40 µm cell strainer and centrifuged at 600 g for 5 min to pellet the SVF. The cell pellet was resuspended in adipocyte culture medium and plated. Cells were maintained at 37° C. in 10% CO2. Primary brown pre-adipocytes were counted and plated in the evening, 12 h before differentiation at 15,000 cells per well of a seahorse plate. Pre-adipocyte plating was scaled according to surface area. […]
Direct measure of UCP1-dependent respiration in brown adipocytes. […] Basal respiration was determined to be the oxygen consumption in the presence of substrate (1 mM sodium pyruvate) alone. Following determination of basal respiration, MYF compounds at 100 uM or vehicle was added to the cells and the respiration response measured immediately. […] Maximal respiration capacity was determined following addition of DNP (2 mM). […]

SMILES: C=CC(=O)Nc1cc(-c2ccncc2)ccc1C(=O)OC [CP-A16, methyl 2-acrylamido-4-(pyridin-4-yl)benzoate]
- UCP-1-dependent respiration: activation

SMILES: CCC(=O)Nc1cc(-c2ccnnc2)sc1C(=O)OC [ZNL-06-123]
- UCP-1-dependent respiration: activation
